Data taken from patent US11590116B2 (THERAVANCE BIOPHARMA R&D IP, LLC, priority 2019, dated 2023).

Tests used:
[1] = system: TGF-β-stimulated SMAD3 phosphorylation in BEAS-2B cells; test: Cellular ALK5 potency assay, inhibition of TGF-β stimulated pSMAD3 formation in BEAS-2B cells; assay type: cell-based; conditions: Homo sapiens; inhibition of TGF-β stimulated pSMAD3 formation, BEAS-2B cells; read-out: BEAS2B pIC50 (converted)
Method in brief: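 AlphaLISA pSMAD3 read-out, beads incubated overnight. Human BEAS-2B cells: 1 h compound preincubation (37 °C, 5% CO2), then 30 min TGF-β at 10 ng/mL final, immediate lysis. Values are pIC50 relative to stimulated, compound-free baseline.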

[2] = biological target: T1, recombinant human ALK5 (TGF-βR1) protein (Homo sapiens, UniProt P36897); test: Biochemical ALK5 (TGF-βR1) assay to measure pKi (LANCE Ultra ULight kinase assay); conditions: apparent pKi from pIC50 by Cheng-Prusoff, read-out: ALK5 pKi (converted)
T1 construct: purchased Life Technologies PR9075A
T1 sequence (P36897 34-503): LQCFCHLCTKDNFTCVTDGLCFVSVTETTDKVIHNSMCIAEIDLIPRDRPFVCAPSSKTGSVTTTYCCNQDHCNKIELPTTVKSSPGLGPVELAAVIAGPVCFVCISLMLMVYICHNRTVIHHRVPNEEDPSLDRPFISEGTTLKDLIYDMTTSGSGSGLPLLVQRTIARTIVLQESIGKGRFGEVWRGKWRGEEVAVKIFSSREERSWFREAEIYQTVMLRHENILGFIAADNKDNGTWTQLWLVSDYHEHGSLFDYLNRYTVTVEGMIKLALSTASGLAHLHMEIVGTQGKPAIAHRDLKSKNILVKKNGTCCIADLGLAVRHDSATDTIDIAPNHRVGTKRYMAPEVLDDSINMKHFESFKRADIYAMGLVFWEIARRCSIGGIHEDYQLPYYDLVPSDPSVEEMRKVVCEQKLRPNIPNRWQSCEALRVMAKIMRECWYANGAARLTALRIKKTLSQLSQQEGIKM
Method in brief: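 Compounds (10 μM to 25 pM) preincubated 60 minutes at room temperature with enzyme, then reaction run 60 minutes at 37° C with ATP added as 125 μM (5× final). Stopped with EDTA plus Eu-anti-phospho-Topoisomerase 2-alpha (Thr1342) antibody, TR-FRET read at 665 nm; pIC50 converted to pKi via Cheng-Prusoff.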

| SMILES | IC50 [1] [nM] | Ki [2] [nM] |
| --- | --- | --- |
| Cc1nc(-c2n[nH]cc2-c2ccc3ncc(-c4ncn5c4CNCC5)cc3n2)ccc1F [Compound 107, 2-[3-(5-fluoro-6-methyl-2-pyridyl)-1H-pyrazol-4-yl]-7-(5,6,7,8-tetrahydroimidazo[1,5-a]pyrazin-1-yl)-1,5-naphthyridine] | 25.1 to 158 | 0.0398 to 0.316 |
| CNCCn1ccc(-c2cnc3ccc(-c4c[nH]nc4-c4ccc(F)c(C)n4)nc3c2)n1 [Compound 108, 2-[3-[6-[3-(5-fluoro-6-methyl-2-pyridyl)-1H-pyrazol-4-yl]-1,5-naphthyridin-3-yl]pyrazol-1-yl]-N-methyl-ethanamine] | 25.1 to 158 | 0.0398 to 0.316 |
| Cc1cccc(-c2n[nH]cc2-c2ccc3ncc(C(=O)NCCCN4CCOCC4)cc3n2)n1 [Compound 109, 6-[3-(6-methyl-2-pyridyl)-1H-pyrazol-4-yl]-N-(3-morpholinopropyl)-1,5-naphthyridine-3-carboxamide] | 25.1 to 158 | 0.0398 to 0.316 |
| Cc1cccc(-c2[nH]cnc2-c2ccc3ncc(-c4ccc(C(=O)OC5CCNCC5)nc4)cc3c2)n1 [Compound 110, piperidin-4-yl 5-(6-(5-(6-methylpyridin-2-yl)-1H-imidazol-4-yl)quinolin-3-yl)picolinate] | 25.1 to 158 | 0.0398 to 0.316 |
| Cc1cccc(-c2n[nH]cc2-c2ccc3ncc(-c4cn(-c5ccccc5)nn4)cc3n2)n1 [Compound 111, 2-[3-(6-methyl-2-pyridyl)-1H-pyrazol-4-yl]-7-(1-phenyltriazol-4-yl)-1,5-naphthyridine] | < 20 | 0.0398 to 0.316 |
| COc1[nH]nc(-c2cccc(C)n2)c1-c1ccc2ncc(N3CCC(N4CCN(C)CC4)CC3)cc2n1 [Compound 112, 2-[5-methoxy-3-(6-methyl-2-pyridyl)-1H-pyrazol-4-yl]-7-[4-(4-methylpiperazin-1-yl)-1-piperidyl]-1,5-naphthyridine] | 200 to 1260 | 0.0398 to 0.316 |
| Cc1cccc(-c2n[nH]cc2-c2ccc3ncc(NC4CCNCC4)cc3n2)n1 [Compound 113, 6-[3-(6-methyl-2-pyridyl)-1H-pyrazol-4-yl]-N-(4-piperidyl)-1,5-naphthyridin-3-amine] | 200 to 1260 | 0.0398 to 0.316 |
| Cc1nc(-c2n[nH]cc2-c2ccc3ncc(N4CCC(N5CCCC5)CC4)cc3n2)ccc1F [Compound 114, 2-[3-(5-fluoro-6-methyl-2-pyridyl)-1H-pyrazol-4-yl]-7-(4-pyrrolidin-1-yl-1-piperidyl)-1,5-naphthyridine] | 25.1 to 158 | < 0.0316 |
| Cc1cccc(-c2nn3c(c2-c2ccc4ncc(-c5cn[nH]c5)cc4n2)CNCC3)n1 [Compound 115, 2-(2-(6-Methylpyridin-2-yl)-4,5,6,7-tetrahydropyrazolo[1,5-a]pyrazin-3-yl)-7-(1H-pyrazol-4-yl)-1,5-naphthyridine] | 25.1 to 158 | 0.0398 to 0.316 |
| Cc1cccc(-c2[nH]cnc2-c2ccc3ncc(NCCC4CNC4)cc3c2)n1 [Compound 116, N-[2-(azetidin-3-yl)ethyl]-6-[5-(6-methyl-2-pyridyl)-1H-imidazol-4-yl]quinolin-3-amine] | 25.1 to 158 | 0.0398 to 0.316 |
| Cc1cccc(-c2[nH]cnc2-c2ccc3ncc(C4=CC(C)(C)NC(C)(C)C4)cc3c2)n1 [Compound 117, 6-[5-(6-methyl-2-pyridyl)-1H-imidazol-4-yl]-3-(2,2,6,6-tetramethyl-1,3-dihydropyridin-4-yl)quinoline] | 25.1 to 158 | 0.398 to 3.16 |
| Cc1cccc(-c2n[nH]cc2-c2ccc3ncc(-c4ncn5c4CNCC5)cc3n2)n1 [Compound 118, 2-[3-(6-methyl-2-pyridyl)-1H-pyrazol-4-yl]-7-(5,6,7,8-tetrahydroimidazo[1,5-a]pyrazin-1-yl)-1,5-naphthyridine] | 25.1 to 158 | 0.0398 to 0.316 |
| Cc1cccc(-c2[nH]nnc2-c2ccc3ncc(N4CCC(N5CCN(C)CC5)CC4)cc3n2)n1 [Compound 119, 7-[4-(4-methylpiperazin-1-yl)-1-piperidyl]-2-[5-(6-methyl-2-pyridyl)-1H-triazol-4-yl]-1,5-naphthyridine] | 200 to 1260 | 0.0398 to 0.316 |
| Cc1cccc(-c2nc3ccccn3c2-c2ccc3ncc(NCCN4CCN(C(C)C)CC4)cc3n2)n1 [Compound 120, N-(2-(4-isopropylpiperazin-1-yl)ethyl)-6-(2-(6-methylpyridin-2-yl)imidazo[1,2-a]pyridin-3-yl)-1,5-naphthyridin-3-amine] | 25.1 to 158 | 0.0398 to 0.316 |
| Cc1cccc(-c2n[nH]cc2-c2ccc3ncc(Nc4ccc(N5CCNCC5)cn4)cc3c2)n1 [Compound 121, 6-[3-(6-methyl-2-pyridyl)-1H-pyrazol-4-yl]-N-(5-piperazin-1-yl-2-pyridyl)quinolin-3-amine] | 25.1 to 158 | < 0.0316 |
| Cc1cccc(-c2[nH]cnc2-c2ccc3ncc(NCCN4CCNCC4)cc3c2)n1 [Compound 122, 6-[5-(6-methyl-2-pyridyl)-1H-imidazol-4-yl]-N-(2-piperazin-1-ylethyl)quinolin-3-amine] | 25.1 to 158 | 0.0398 to 0.316 |
| Cc1nc(-c2n[nH]cc2-c2ccc3ncc(-c4cnc5n4CCCN5)cc3n2)ccc1F [Compound 123, 2-[3-(5-fluoro-6-methyl-2-pyridyl)-1H-pyrazol-4-yl]-7-(5,6,7,8-tetrahydroimidazo[1,2-a]pyrimidin-3-yl)-1,5-naphthyridine] | 25.1 to 158 | 0.0398 to 0.316 |
| Cc1cccc(-c2n[nH]cc2-c2ccc3ncc(N4CCC5(CCN(C(=O)OCc6ccccc6)C5)C4)cc3n2)n1 (stereo not shown) [Compound 124, benzyl 7-[6-[3-(6-methyl-2-pyridyl)-1H-pyrazol-4-yl]-1,5-naphthyridin-3-yl]-2,7-diazaspiro[4.4]nonane-2-carboxylate] | 25.1 to 158 | 0.0398 to 0.316 |
| CNCCn1cc(-c2cnc3ccc(-c4nn[nH]c4-c4cccc(C)n4)cc3c2)cn1 [Compound 125, N-methyl-2-(4-(6-(5-(6-methylpyridin-2-yl)-1H-1,2,3-triazol-4-yl)quinolin-3-yl)-1H-pyrazol-1-yl)ethan-1-amine] | 25.1 to 158 | < 0.0316 |
| Cc1cccc(-c2n[nH]cc2-c2ccc3ncc(CO)cc3n2)n1 [Compound 126, [6-[3-(6-methyl-2-pyridyl)-1H-pyrazol-4-yl]-1,5-naphthyridin-3-yl]methanol] | 25.1 to 158 | 0.0398 to 0.316 |
| CNCCn1cc(-c2cnc3ccc(-c4c[nH]nc4-c4cccc(C)n4)nc3c2OC)cn1 [Compound 127, 2-[4-[4-methoxy-6-[3-(6-methyl-2-pyridyl)-1H-pyrazol-4-yl]-1,5-naphthyridin-3-yl]pyrazol-1-yl]-N-methyl-ethanamine] | 25.1 to 158 | < 0.0316 |
| Cc1cccc(-c2[nH]cnc2-c2ccc3ncc(Nc4nc5n(n4)CCN(C(C)C)C5)cc3c2)n1 [Compound 128, N-(7-isopropyl-6,8-dihydro-5H-[1,2,4]triazolo[1,5-a]pyrazin-2-yl)-6-[5-(6-methyl-2-pyridyl)-1H-imidazol-4-yl]quinolin-3-amine] | 25.1 to 158 | 0.0398 to 0.316 |
| Cc1cccc(-c2[nH]cnc2-c2ccc3ncc(NCCN4CC5CNC5C4)cc3c2)n1 (stereo not shown) [Compound 129, N-[2-(3,6-diazabicyclo[3.2.0]heptan-3-yl)ethyl]-6-[5-(6-methyl-2-pyridyl)-1H-imidazol-4-yl]quinolin-3-amine] | 200 to 1260 | 0.0398 to 0.316 |
